{"source": "paper PMC11434752", "about": "“Algerian Prickly Pear Seed By-Products: Fatty Acids Composition, Antioxidant, Enzyme Inhibitory Activities towards Tyrosinase, Urease, α-Amylase, and Cholinesterase, along with the Ability to Protect from Thermal Protein Denaturation” (Pharmaceuticals, 2024)", "target": "urease (Canavalia ensiformis, UniProt P07374)", "sequence (P07374 whole entry)": "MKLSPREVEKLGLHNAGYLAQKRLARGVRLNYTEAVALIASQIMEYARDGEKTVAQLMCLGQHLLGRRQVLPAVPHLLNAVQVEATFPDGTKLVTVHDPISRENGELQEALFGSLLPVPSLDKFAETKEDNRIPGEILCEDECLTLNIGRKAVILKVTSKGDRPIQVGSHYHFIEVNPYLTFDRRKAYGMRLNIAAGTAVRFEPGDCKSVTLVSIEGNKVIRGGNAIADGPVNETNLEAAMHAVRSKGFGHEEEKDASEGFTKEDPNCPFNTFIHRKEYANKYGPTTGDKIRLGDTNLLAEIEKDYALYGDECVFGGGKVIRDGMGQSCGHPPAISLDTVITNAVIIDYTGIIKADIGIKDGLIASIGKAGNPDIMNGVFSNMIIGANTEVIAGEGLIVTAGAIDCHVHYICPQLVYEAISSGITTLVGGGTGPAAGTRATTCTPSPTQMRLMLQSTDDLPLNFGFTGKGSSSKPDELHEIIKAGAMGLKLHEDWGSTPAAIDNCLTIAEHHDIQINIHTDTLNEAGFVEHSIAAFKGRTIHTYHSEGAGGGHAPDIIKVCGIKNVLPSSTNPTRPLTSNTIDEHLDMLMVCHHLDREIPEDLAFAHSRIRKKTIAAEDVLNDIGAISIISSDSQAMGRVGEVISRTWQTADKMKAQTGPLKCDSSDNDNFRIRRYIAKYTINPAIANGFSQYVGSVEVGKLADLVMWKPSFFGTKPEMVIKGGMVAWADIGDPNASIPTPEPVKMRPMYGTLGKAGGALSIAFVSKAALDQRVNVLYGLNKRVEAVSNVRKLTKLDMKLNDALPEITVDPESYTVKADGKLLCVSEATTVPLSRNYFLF", "assay": "biochemical", "data": [{"smiles": "NC(N)=S", "note": "[Thiourea]", "values": [{"measurement": "IC50", "result": 111, "unit": "µM"}]}]}
